Values of other authors, collected in publication PMC7028125 (Clinical Pharmacology in Drug Development, 2019).

Tests used:
[1] = test system: organic cation transporter 2; set-up: method as in PMID 23132334; settings: in vitro
[2] = mass balance study of 20 mg [14C]‐dolutegravir (80 µCi)
[3] = test system: breast cancer resistance protein; set-up: method as in PMID 23132334; settings: in vitro
[4] = test system: multidrug and toxin extrusion 1 transporter; settings: in vitro
P‐glycoprotein = test system: P‐glycoprotein; set-up: method as in PMID 23132334; settings: in vitro

C[C@@H]1CCO[C@H]2Cn3cc(C(=O)NCc4ccc(F)cc4F)c(=O)c(O)c3C(=O)N12 [Dolutegravir, dolutegravir]
Inhibition of organic cation transporter 2 (in words) [1]: potently inhibits
Dolutegravir recovered in feces [2]: 64.0%
Dolutegravir recovered in urine [2]: 31.6%
Substrate for breast cancer resistance protein (in words) [3]: substrate
Inhibition of multidrug and toxin extrusion 1 transporter (in words) [4]: potently inhibits
Substrate for P‐glycoprotein (in words) (P‐glycoprotein): substrate
